The source of these data is patent US20250041239A1, “ORALLY DISSOLVING ANTIMICROBIAL FILM COMPOSITIONS & METHODS OF THEIR USE” (ISHA Therapeutics LLC, priority 2022, published 2025).

SMILES strings stand for the structures. In brackets after ≈: the same amount, converted by molar mass.

By MIC is commonly meant the least concentration at which growth counts as inhibited.

For data set [1] the following is noted: physiological pH; cited from earlier work.
The next data set deals with Candida spp. Put plainly: Resazurin microtiter assay (REMA), MIC, Candida spp. tested. In kind it is cell-based. The note with it: Candida albicans and Candida tropicalis; read-out: average MIC against Candida spp. tested. As to the method:
This Example provides a description of antifungal efficacy testing wherein minimum inhibitor concentration (MIC) of the active pharmaceutical ingredient amphotericin B in the orally dissolvable films disclosed herein compared to that of unmodified amphotericin B. The test organisms utilized in this experiment were Candida tropicalis and Candida albicans.
A resazurin microtiter assay (REMA) assay was performed using orally dissolvable films prepared according to the process described in Example 3 and unmodified amphotericin B. Samples were run in triplicate as Sets 1-3 for each test material against each pathogen.

The subject of another data set is Candida albicans. Put plainly: Agar cup diffusion, zone of inhibition. Format: cell-based. From the text: (§1) This Example provides a description of the antifungal activity of the active pharmaceutical ingredient amphotericin B in the orally dissolvable films disclosed herein compared to that of unmodified amphotericin B. Test organisms utilized in this experiment were Candida albicans and Candida tropicalis. Orally dissolvable amphotericin B-containing film(s) utilized in this Example were made according to the process described in Example 3.
(§2) Two different species of infectious fungal genus Candida were cultured. A first mixture of sabouraud dextrose agar and broth was inoculated with Candida albicans and allowed to sit at room temperature for a period of two days under aerobic conditions. A second mixture of sabouraud dextrose agar and broth was inoculated with Candida tropicalis and allowed to sit at room temperature for 2 days under aerobic conditions. This established two cultures (one each) of the test organisms.
(§3) To standardize the respective cultures, the optical density of each culture was adjusted using a 0.5 McFarland (turbidity) standard, approximating cultures to be approximately […] colony forming units per milliliter (cfu/mL).
(§4) Each respective suspension was mixed until homogeneous to provide a final culture density of about 1×10^4 cfu/mL.
(§5) Agar cup diffusion was used for testing antifungal activity of the test compositions. 0.1 mL of each respective sample of amphotericin B or amphotericin B-containing film was provided in a cylinder. Film concentration was 1.8 mg amphotericin B per film. Each test plate contained two samples (two cylinders). Tests were performed in triplicate (3 plates per test composition). Plates were incubated at room temperature for a period of 2 days as amphotericin B test compositions were allowed to diffuse into the agar layer containing test organism(s).
(§6) Amphotericin B and amphotericin B-containing films were then evaluated for in vitro antifungal activity by measuring the zone of inhibition and microbial inhibition concentration (MIC) of each sample. Results are shown in FIGS. 2A, 2B, and 2C for the test organism Candida albicans and FIGS. 3A, 3B, and 3C for the test organism Candida tropicalis. Therein, amphotericin B samples are indicated as “A” and amphotericin B-containing films are indicated as “B”.

A further data set has as its system Candida tropicalis. Put plainly: Agar cup diffusion, zone of inhibition. In kind it is cell-based.
Text: as §1, §2, §3, §4, §5, §6

[2] abbreviates: 0.1 mL sample, room temperature, 2 days.

`C[C@@H]1[C@H](O)[C@@H](C)/C=C/C=C/C=C/C=C/C=C/C=C/C=C/[C@H](O[C@@H]2O[C@H](C)[C@@H](O)[C@H](N)[C@@H]2O)C[C@@H]2O[C@](O)(C[C@@H](O)C[C@@H](O)[C@H](O)CC[C@@H](O)C[C@@H](O)CC(=O)O[C@H]1C)C[C@H](O)[C@H]2C(=O)O` [AmpB, (1R,3S,5R,6R,9R,11R,15S,16R, 17R, 18S, 19E,21E,23E, 25E, 27E,29E,31E,33R,35S,36R,37S)-33-[(2R,3S,4S,5S,6R)-4-amino-3,5-di hydroxy-6-methyloxan-2-yl]oxy-1,3,5,6,9,11,17,37-octahydroxy-15,16,18-trimethyl-13-oxo-14,39-dioxabicyclo[33.3.1]nonatriaconta-19,21,23, 25, 27,29,31-heptaene-36-carboxylic acid]: the solubility in saline entry in data set [1] is “insoluble”. In addition, in the data set with Candida spp., the minimal inhibitory concentration (MIC) was roughly 1.1 µg/mL (≈ 1.19 µM). For the same compound, in the data set on Candida albicans (setting [2]), the “Zone of Inhibition, Set 1” value turned out to be 19 mm; the “Zone of Inhibition, Set 2” value is 19 mm; the “Zone of Inhibition, Set 3” value came to 20 mm. The “Effective Zone of Inhibition” value in the data set on Candida albicans (mean of Sets 1-3) was 19.33 ± 0.57 mm. Further, in the data set with Candida tropicalis (setting [2]), the “Zone of Inhibition, Set 1” value amounted to 20 mm; the “Zone of Inhibition, Set 2” value came out at 22 mm; the “Zone of Inhibition, Set 3” value turned out to be 22 mm. The “Effective Zone of Inhibition” value in the data set with Candida tropicalis (mean of Sets 1-3) was found to be 21.33 ± 1.15 mm.
